This passage reports IC50 results from patent US11739098B2 (BRISTOL-MYERS SQUIBB COMPANY, priority 2017, dated 2023).

Type in all cases: cell-based
One assay concerns the target T1, human TLR9 (Homo sapiens, UniProt Q9NR96).
T1 construct: host or cells: HEK-Blue cells (HEK293-derived reporter line)
T1 sequence (Q9NR96 26-1032): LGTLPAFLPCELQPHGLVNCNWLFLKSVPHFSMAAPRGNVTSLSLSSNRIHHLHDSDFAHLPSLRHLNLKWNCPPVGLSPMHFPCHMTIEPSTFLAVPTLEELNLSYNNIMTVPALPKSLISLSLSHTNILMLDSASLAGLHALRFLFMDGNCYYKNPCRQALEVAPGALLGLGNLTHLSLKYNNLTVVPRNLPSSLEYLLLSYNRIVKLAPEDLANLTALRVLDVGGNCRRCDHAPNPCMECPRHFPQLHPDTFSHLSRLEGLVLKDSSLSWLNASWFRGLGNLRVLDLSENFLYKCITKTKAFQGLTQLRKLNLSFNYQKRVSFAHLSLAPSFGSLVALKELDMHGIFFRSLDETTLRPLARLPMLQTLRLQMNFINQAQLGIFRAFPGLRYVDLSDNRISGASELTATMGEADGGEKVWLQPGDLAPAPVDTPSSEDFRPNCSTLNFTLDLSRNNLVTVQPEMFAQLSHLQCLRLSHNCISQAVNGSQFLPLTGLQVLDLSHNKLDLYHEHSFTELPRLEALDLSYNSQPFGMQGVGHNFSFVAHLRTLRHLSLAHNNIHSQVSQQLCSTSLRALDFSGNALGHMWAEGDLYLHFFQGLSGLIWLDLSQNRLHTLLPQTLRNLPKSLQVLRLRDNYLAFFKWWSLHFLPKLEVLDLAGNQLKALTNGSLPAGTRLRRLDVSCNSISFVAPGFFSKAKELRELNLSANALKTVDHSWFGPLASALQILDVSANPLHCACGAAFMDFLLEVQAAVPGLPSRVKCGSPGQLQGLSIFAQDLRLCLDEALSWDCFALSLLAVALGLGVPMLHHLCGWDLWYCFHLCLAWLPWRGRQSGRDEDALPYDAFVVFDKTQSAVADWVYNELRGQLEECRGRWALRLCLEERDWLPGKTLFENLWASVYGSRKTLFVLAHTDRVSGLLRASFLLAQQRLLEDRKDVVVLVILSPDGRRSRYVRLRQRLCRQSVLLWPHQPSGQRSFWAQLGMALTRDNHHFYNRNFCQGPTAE
The experiment in a line: TLR9 inhibition reporter assay (HEK-Blue cells, SEAP reporter, ODN2006 stimulation). The settings on record: HEK-Blue cells overexpressing human TLR9, SEAP reporter, ODN2006 5 nM. In a few lines:
(§1)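 Cells seeded per well (15000 TLR7, 20,000 TLR8, 25,000 TLR9); compound added over 0.05 nM–50 μM for 30 min at room temperature; agonist added (TLR7 gardiquimod 7.5 μM, TLR8 R848 15.9 μM, TLR9 ODN2006 5 nM); 22 h at 37 °C; SEAP measured; percent inhibition calculated.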
A general note: Reporter assays use an easily measured gene product as a stand-in for the process of interest.

The target of another assay is T2, human TLR7 (Homo sapiens, UniProt Q9NYK1).
T2 construct: host or cells: HEK-Blue cells (HEK293-derived reporter line)
T2 sequence (Q9NYK1 27-1049): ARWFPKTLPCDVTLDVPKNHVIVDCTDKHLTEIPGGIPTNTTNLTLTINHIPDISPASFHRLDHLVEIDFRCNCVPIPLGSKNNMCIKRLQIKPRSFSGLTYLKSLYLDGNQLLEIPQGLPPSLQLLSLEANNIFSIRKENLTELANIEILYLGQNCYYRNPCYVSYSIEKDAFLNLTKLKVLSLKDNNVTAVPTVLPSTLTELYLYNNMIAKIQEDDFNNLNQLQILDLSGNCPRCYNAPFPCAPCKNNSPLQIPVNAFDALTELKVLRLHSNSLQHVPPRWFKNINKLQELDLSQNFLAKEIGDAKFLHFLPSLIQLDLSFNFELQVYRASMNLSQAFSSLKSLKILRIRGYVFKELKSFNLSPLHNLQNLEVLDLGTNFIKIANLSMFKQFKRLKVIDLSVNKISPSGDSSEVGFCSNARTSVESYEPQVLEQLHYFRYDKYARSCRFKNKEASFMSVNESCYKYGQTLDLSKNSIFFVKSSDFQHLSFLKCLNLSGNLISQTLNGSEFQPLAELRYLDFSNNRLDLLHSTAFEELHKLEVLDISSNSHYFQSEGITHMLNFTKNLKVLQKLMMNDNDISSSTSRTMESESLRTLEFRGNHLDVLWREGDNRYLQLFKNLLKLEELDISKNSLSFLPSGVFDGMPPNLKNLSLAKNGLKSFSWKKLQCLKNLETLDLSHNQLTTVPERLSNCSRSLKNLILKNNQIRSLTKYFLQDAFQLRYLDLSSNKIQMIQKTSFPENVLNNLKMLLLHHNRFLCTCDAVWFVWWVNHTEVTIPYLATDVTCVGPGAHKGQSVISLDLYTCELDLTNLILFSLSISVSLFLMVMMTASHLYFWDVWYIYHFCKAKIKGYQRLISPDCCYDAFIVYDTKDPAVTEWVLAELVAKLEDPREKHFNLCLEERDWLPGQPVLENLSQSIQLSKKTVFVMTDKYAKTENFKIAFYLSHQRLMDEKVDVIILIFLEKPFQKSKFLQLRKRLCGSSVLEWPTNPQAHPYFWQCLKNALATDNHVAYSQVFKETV
Nature of the assay: TLR7 inhibition reporter assay (HEK-Blue cells, SEAP reporter, gardiquimod stimulation). The settings on record: HEK-Blue cells overexpressing human TLR7, SEAP reporter, gardiquimod 7.5 μM. In a few lines:
as §1

The target of another assay is T3, human TLR8 (Homo sapiens, UniProt Q9NR97).
T3 construct: host or cells: HEK-Blue cells (HEK293-derived reporter line)
T3 sequence (Q9NR97 27-1041): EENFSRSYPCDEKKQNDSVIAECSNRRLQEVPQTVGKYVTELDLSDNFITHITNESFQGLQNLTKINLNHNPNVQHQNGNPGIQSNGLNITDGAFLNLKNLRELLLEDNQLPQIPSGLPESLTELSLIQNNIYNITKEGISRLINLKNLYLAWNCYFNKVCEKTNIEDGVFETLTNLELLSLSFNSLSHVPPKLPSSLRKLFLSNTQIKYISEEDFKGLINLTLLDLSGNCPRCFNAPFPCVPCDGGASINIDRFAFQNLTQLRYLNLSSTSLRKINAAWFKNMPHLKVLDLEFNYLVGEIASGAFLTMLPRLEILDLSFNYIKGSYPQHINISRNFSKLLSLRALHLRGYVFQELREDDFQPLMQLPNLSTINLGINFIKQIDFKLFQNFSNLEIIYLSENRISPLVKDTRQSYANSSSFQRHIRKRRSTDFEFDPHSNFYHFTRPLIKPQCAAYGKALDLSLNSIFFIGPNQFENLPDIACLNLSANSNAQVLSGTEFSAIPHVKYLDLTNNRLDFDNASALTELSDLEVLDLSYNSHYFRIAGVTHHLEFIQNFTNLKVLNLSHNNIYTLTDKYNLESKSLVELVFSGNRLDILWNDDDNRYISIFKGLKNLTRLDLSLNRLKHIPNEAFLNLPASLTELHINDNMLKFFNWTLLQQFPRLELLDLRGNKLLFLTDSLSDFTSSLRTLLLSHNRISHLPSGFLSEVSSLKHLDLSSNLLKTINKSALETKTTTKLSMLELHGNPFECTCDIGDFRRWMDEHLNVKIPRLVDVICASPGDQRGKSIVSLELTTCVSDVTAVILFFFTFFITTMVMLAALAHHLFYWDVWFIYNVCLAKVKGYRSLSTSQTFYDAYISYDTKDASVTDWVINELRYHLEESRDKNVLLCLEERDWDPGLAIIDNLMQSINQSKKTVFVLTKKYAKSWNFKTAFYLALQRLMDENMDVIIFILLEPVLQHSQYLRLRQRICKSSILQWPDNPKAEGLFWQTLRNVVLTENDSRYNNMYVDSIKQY
The experiment in a line: TLR8 inhibition reporter assay (HEK-Blue cells, SEAP reporter, R848 stimulation). The settings on record: HEK-Blue cells overexpressing human TLR8, SEAP reporter, R848 15.9 μM. The gist of the method: as §1

The IC50 is the concentration that inhibits the measured activity by half. Read a high IC50 as a need for much substance. In the case of `CC(C)c1c(-c2cnc3ccnn3c2)[nH]c2ccc(C3CCN(Cc4cnn(C)c4)CC3)cc12` [Example 932, 6-(3-isopropyl-5-(1-((1-methyl-1H-pyrazol-4-yl)methyl)piperidin-4-yl)-1H-indol-2-yl)pyrazolo[1,5-a]pyrimidine], the IC50 at human TLR9 was 100 to 1000 nM; against human TLR7, 100 to 1000 nM; against human TLR8, 1000 to 50000 nM.
As to `CC(C)c1c(-c2cc(C(F)(F)F)c3nccn3c2)[nH]c2ccc(C3CCN(Cc4cnn(C)c4)CC3)cc12` [Example 933, 6-(3-isopropyl-5-(1-((1-methyl-1H-pyrazol-4-yl)methyl)piperidin-4-yl)-1H-indol-2-yl)-8-(trifluoromethyl)imidazo[1,2-a]pyridine], the half-inhibitory concentration (IC50) against human TLR9 is 100 to 1000 nM; against human TLR7, less than 100 nM; against human TLR8, less than 100 nM.
Consider `Cc1cn2cc(-c3[nH]c4ccc(C5CCN(Cc6cnn(C)c6)CC5)cc4c3C(C)C)cc(C(F)(F)F)c2n1` [Example 934, 6-(3-isopropyl-5-(1-((1-methyl-1H-pyrazol-4-yl)methyl)piperidin-4-yl)-1H-indol-2-yl)-2-methyl-8-(trifluoromethyl)imidazo[1,2-a]pyridine], for which the IC50 at human TLR9 was 1000 to 50000 nM; against human TLR7 it was less than 100 nM; against human TLR8, 100 to 1000 nM.
For `COc1ccc(CN2CCC(c3ccc4[nH]c(-c5ccc6nccn6c5)c(C(C)C)c4c3)CC2)cn1` [Example 935, 6-(3-isopropyl-5-(1-((6-methoxypyridin-3-yl)methyl)piperidin-4-yl)-1H-indol-2-yl)imidazo[1,2-a]pyridine], the IC50 on human TLR9 was 100 to 1000 nM; on human TLR7 it was less than 100 nM; against human TLR8, less than 100 nM.
For `Cc1cn2cc(-c3[nH]c4ccc(C5CCN(Cc6c[nH]cn6)CC5)cc4c3C(C)C)ccc2n1` [Example 936, 6-(5-(1-((1H-imidazol-4-yl)methyl)piperidin-4-yl)-3-isopropyl-1H-indol-2-yl)-2-methylimidazo[1,2-a]pyridine], the half-inhibitory concentration (IC50) against human TLR9 is less than 100 nM; on human TLR7, less than 100 nM; on human TLR8 it was 100 to 1000 nM.
`Cc1cn2cc(-c3[nH]c4ccc(C5CCN(Cc6c[nH]c(C)n6)CC5)cc4c3C(C)C)ccc2n1` [Example 937, 6-(3-isopropyl-5-(1-((2-methyl-1H-imidazol-4-yl)methyl)piperidin-4-yl)-1H-indol-2-yl)-2-methylimidazo[1,2-a]pyridine]: the IC50 on human TLR9 is less than 100 nM; against human TLR7 it was less than 100 nM; against human TLR8, 100 to 1000 nM.
Consider `Cc1nc(CN2CCC(c3ccc4[nH]c(-c5ccc6nccn6c5)c(C(C)C)c4c3)CC2)c[nH]1` [Example 938, 6-(3-isopropyl-5-(1-((2-methyl-1H-imidazol-4-yl)methyl)piperidin-4-yl)-1H-indol-2-yl)imidazo[1,2-a]pyridine], for which the values for the IC50 at human TLR9, on human TLR7 and against human TLR8 were 100 to 1000 nM, less than 100 nM and less than 100 nM, respectively.
In the case of `Cc1nc(CN2CCC(c3ccc4[nH]c(-c5ccc6nccn6c5)c(CC(F)F)c4c3)CC2)c[nH]1` [Example 939, 6-(3-(2,2-difluoroethyl)-5-(1-((2-methyl-1H-imidazol-4-yl)methyl)piperidin-4-yl)-1H-indol-2-yl)imidazo[1,2-a]pyridine], the IC50 on human TLR9, on human TLR7 and against human TLR8 was 100 to 1000 nM throughout.
Consider `CC(C)c1c(-c2ccc3nccn3c2)[nH]c2ccc(C3CCN(Cc4c[nH]cn4)CC3)cc12` [Example 940, 6-(5-(1-((1H-imidazol-4-yl)methyl)piperidin-4-yl)-3-isopropyl-1H-indol-2-yl)imidazo[1,2-a]pyridine], for which the IC50 against human TLR9, on human TLR7 and on human TLR8 was less than 100 nM throughout.
Consider `FC(F)Cc1c(-c2ccc3nccn3c2)[nH]c2ccc(C3CCN(Cc4c[nH]cn4)CC3)cc12` [Example 941, 6-(5-(1-((1H-imidazol-4-yl)methyl)piperidin-4-yl)-3-(2,2-difluoroethyl)-1H-indol-2-yl)imidazo[1,2-a]pyridine], for which the IC50 against human TLR9, at human TLR7 and on human TLR8 was 100 to 1000 nM each time.
As to `CC(C)c1c(-c2cc(C(F)(F)F)c3nccn3c2)[nH]c2ccc(C3CCN(C(C)C)CC3)cc12` [Example 942, 6-(3-isopropyl-5-(1-isopropylpiperidin-4-yl)-1H-indol-2-yl)-8-(trifluoromethyl)imidazo[1,2-a]pyridine], the IC50 is 1000 to 50000 nM at human TLR9, less than 100 nM on human TLR7 and less than 100 nM at human TLR8.
Regarding `Cc1cn2cc(-c3[nH]c4ccc(C5CCN(C(C)C)CC5)cc4c3C(C)C)cc(C(F)(F)F)c2n1` [Example 943, 6-(3-isopropyl-5-(1-isopropylpiperidin-4-yl)-1H-indol-2-yl)-2-methyl-8-(trifluoromethyl)imidazo[1,2-a]pyridine], the IC50 on human TLR9 was 100 to 1000 nM; against human TLR7 it was less than 100 nM; on human TLR8, 100 to 1000 nM.
